{"source": "patent US7872122B2", "about": "“Process for making Biolimus A9” (Chunghwa Chemical Synthesis & Biotech Co., Ltd., priority 2009, dated 2011)", "experiment": "Stability of Biolimus A9 at 40° C. with added anti-oxidant BHT", "type": "physicochemical", "source_text": "The yield data of different amounts of anti-oxidant as added into Biolimus A9 with respect to time lapse of weeks are summarized in Table 1 as below-mentioned.", "data": [{"compound": "CCOCCO[C@@H]1CC[C@@H](C[C@@H](C)[C@@H]2CC(=O)[C@H](C)/C=C(\\C)[C@@H](O)[C@@H](OC)C(=O)[C@H](C)C[C@H](C)/C=C/C=C/C=C(\\C)[C@@H](OC)C[C@@H]3CC[C@@H](C)[C@@](O)(O3)C(=O)C(=O)N3CCCC[C@H]3C(=O)O2)C[C@H]1OC", "note": "[Biolimus A9]", "values": [{"measurement": "Purity (%) of Biolimus A9", "setting": "BHT 0.0% (w/w), 0 week", "value": 99.7, "unit": "%"}, {"measurement": "Purity (%) of Biolimus A9", "setting": "BHT 0.0% (w/w), 2 weeks", "value": 98.2, "unit": "%"}, {"measurement": "Purity (%) of Biolimus A9", "setting": "BHT 0.0% (w/w), 4 weeks", "value": 88.4, "unit": "%"}, {"measurement": "Purity (%) of Biolimus A9", "setting": "BHT 0.0% (w/w), 6 weeks", "value": 69.7, "unit": "%"}, {"measurement": "Purity (%) of Biolimus A9", "setting": "BHT 0.1% (w/w), 0 week", "value": 99.7, "unit": "%"}, {"measurement": "Purity (%) of Biolimus A9", "setting": "BHT 0.1% (w/w), 2 weeks", "value": 99.5, "unit": "%"}, {"measurement": "Purity (%) of Biolimus A9", "setting": "BHT 0.1% (w/w), 4 weeks", "value": 99.5, "unit": "%"}, {"measurement": "Purity (%) of Biolimus A9", "setting": "BHT 0.1% (w/w), 6 weeks", "value": 99.5, "unit": "%"}, {"measurement": "Purity (%) of Biolimus A9", "setting": "BHT 0.2% (w/w), 0 week", "value": 99.6, "unit": "%"}, {"measurement": "Purity (%) of Biolimus A9", "setting": "BHT 0.2% (w/w), 2 weeks", "value": 99.6, "unit": "%"}, {"measurement": "Purity (%) of Biolimus A9", "setting": "BHT 0.2% (w/w), 4 weeks", "value": 99.5, "unit": "%"}, {"measurement": "Purity (%) of Biolimus A9", "setting": "BHT 0.2% (w/w), 6 weeks", "value": 99.5, "unit": "%"}, {"measurement": "Purity (%) of Biolimus A9", "setting": "BHT 0.5% (w/w), 0 week", "value": 99.6, "unit": "%"}, {"measurement": "Purity (%) of Biolimus A9", "setting": "BHT 0.5% (w/w), 2 weeks", "value": 99.5, "unit": "%"}, {"measurement": "Purity (%) of Biolimus A9", "setting": "BHT 0.5% (w/w), 4 weeks", "value": 99.4, "unit": "%"}, {"measurement": "Purity (%) of Biolimus A9", "setting": "BHT 0.5% (w/w), 6 weeks", "value": 99.4, "unit": "%"}, {"measurement": "Purity (%) of Biolimus A9", "setting": "BHT 1.0% (w/w), 0 week", "value": 99.6, "unit": "%"}, {"measurement": "Purity (%) of Biolimus A9", "setting": "BHT 1.0% (w/w), 2 weeks", "value": 99.5, "unit": "%"}, {"measurement": "Purity (%) of Biolimus A9", "setting": "BHT 1.0% (w/w), 4 weeks", "value": 99.4, "unit": "%"}, {"measurement": "Purity (%) of Biolimus A9", "setting": "BHT 1.0% (w/w), 6 weeks", "value": 99.4, "unit": "%"}, {"measurement": "yield after six-week storage", "setting": "BHT added for 0.1%, 0.2, 0.5%, and 1% (w/w), six-week storage", "value": "more than 99.4%"}]}]}
